Measured values published in patent US11237156B2, “Method and composition for detection of peptide cyclization using protein tags” (Roche Sequencing Solutions, Inc., priority 2016, dated 2022).
Values belong to the substance of their own block, whether it stands above or below them. No end group written: not given here.

Experiments:
Cy3 anti-FLAG mouse mAB = experiment: Cyclization tag assay, anti-FLAG binding to peptide microarray; conditions: cyclization tag compared with fragmented control
Source text: (§1) With the matured linear protein tags at hand, the linear peptides were formed on a microarray where the tags were fragmented across the N- and C-terminus of the peptide such that upon cyclization, the complete protein tag is formed. The peptides were split around the low specificity position identified according to Examples 2 and 4 (position 6, for both tags), and that position was substituted with allyl-E (see FIG. 1). A flexible linker (Z) was inserted between the two peptide tag fragments to increase flexibility. Z was a 3:1 mixture of Gly:Ser. The linear peptide sequences are shown in Table 1 for the FLAG- and Myc-based sequenced in the row titled “Cyclization tag.” In addition to the cyclization tags, two controls were compared to each tag. The matured linear sequences identified according to Examples 2 and 4 (shown in Table 1 in the row titled “Linear control”) were formed on the microarray and tested as positive controls. […]
(§2) Cy3 and Cy5 fluorescence intensity of the arrays was measured with MS200 scanner (Roche NimbleGen) at resolution 2 um, wavelength 532 nm or 635 nm, gain 25% and laser intensity 100%. […]

anti-FLAG antibody = experiment: FLAG-based sequence maturation binding assay (single substitutions, signal intensity); conditions: for signal intensity after single mutation of the precursor sequence: linear tag on microarray, each position substituted with remaining 19 natural amino acids
Experimental: A fragmented peptide tag was designed to be specific for the anti-FLAG antibody near the N-terminus and C-terminus of the peptide tag, while having low specificity in the middle of the sequence to assist with attachment to a microarray surface through an amino acid side chain. […] A maturation of the FLAG (GDYKDDDDKGG (SEQ ID NO: 232)) tag was performed with the tag in linear form. Each amino acid in the 11 mer peptide was individually substituted with each of the remaining 19 amino acids. As further described below, the process was repeated with modified sequences until the desired specificity at each position was achieved.
Referring to FIG. 25, the initial FLAG sequence (GDYKDDDDKGG (SEQ ID NO: 232)) was modified at each of positions 1-11 individually with each of the remaining 19 natural amino acids, and signal intensity (y-axis) was measured.

Cy5 anti-Myc mouse mAB = experiment: Cyclization tag assay, anti-Myc binding to peptide microarray; conditions: cyclization tag compared with fragmented control
Source text: as §1, §2

streptavidin-Cy5 = streptavidin-Cy5 (Streptomyces avidinii, UniProt P22629); experiment: Streptavidin-Cy5 binding to cyclic/linear peptide microarray (fluorescence); conditions: for cyclic fluorescent intensity: cyclic subarray
Experimental: Slides were bound with […] streptavidin-Cy5 in 30 mL binding buffer for 30 minutes at room temperature. Binding buffer contained 1% alkali soluble casein and 0.05% tween-20 in 1×TBS, pH 7.4. After 30 minutes, slides were washed twice in 1×TBS buffer for 1 minute, water for 30 seconds, and spun to dryness.
Cy5 fluorescence intensity of the arrays was measured with MS200 scanner (Roche NimbleGen) at resolution 2 um, wavelength 635 nm, gain 25% and laser intensity 100%. Cy5 signal intensities were extracted using Image Extraction Software (Roche NimbleGen). Data pre-processing, normalization and statistical tests were done in R. Data visualization and analysis were performed with Spotfire 6.5.0 (Tibco, Boston, Mass.) software platform.

anti-Myc antibody = experiment: Myc sequence maturation binding assay (single substitutions, signal intensity)
Source text: A fragmented protein tag was designed to be specific for the anti-Myc antibody near the N-terminus and C-terminus of the peptide tag, while having low specificity in the middle of the sequence to assist with attachment to a microarray surface through an amino acid side chain. It is to be understood that in some embodiments the amino acid attached to the microarray surface can be near either end of the peptide tag and not necessary closer to the middle of the peptide tag. […] A maturation of the Myc (EQKLISEEDLG (SEQ ID NO: 233)) tag was performed with the tag in the linear form. Each amino acid in the 11 mer peptide was substituted with each of the remaining 19 amino acids. As further described below, the process was repeated until the desired specificity at each position was achieved.
Referring to FIG. 29, the initial Myc sequence (EQKLISEEDLG (SEQ ID NO: 233)) was modified at positions 1-11 and signal intensity (y-axis) was measured.

[1] = single substitution scan of the matured tag
[2] = extension of HPQ-specific design, all J combinations of JXXHPQXXJU

Substance: DQKGGZZZZWDYKD{allyl-E} (DQKGGXXXXWDYKDE; not fully specified (residue 15); printed as DQKGGZZZZWDYKD{allyl-E}; also: X6-X9: Gly or Ser mixture) [FLAG cyclization tag, fragmented FLAG-based tag on microarray, Z = 3:1 mixture of Gly:Ser, cyclized via allyl-E]
median fluorescence (Cy3 anti-FLAG mouse mAB): higher than that of the fragmented control peptides

signal intensity after single mutation of the precursor sequence (anti-FLAG antibody): strongest increase in signal intensity
Substance: WDYKDFDDKGG [G1W, D6F-FLAG tag, G1W-FLAG tag with position 6 mutated to phenylalanine]

Substance: WDYKDFDQKGG [G1W, D6F, D8Q-FLAG tag, matured FLAG tag, position 8 mutated to glutamine]
specificity by sequence position for the anti-FLAG antibody (anti-FLAG antibody; [1]): specificity for the anti-FLAG antibody on the N-terminus (position 1-4) and the C-terminus (position 7-8)

Substance: EEDWGZZZZEQKLI{allyl-E} (EEDWGXXXXEQKLIE; not fully specified (residue 15); printed as EEDWGZZZZEQKLI{allyl-E}; also: X6-X9: Gly or Ser mixture) [Myc cyclization tag, fragmented Myc-based tag on microarray, Z = 3:1 mixture of Gly:Ser, cyclized via allyl-E]
median fluorescence (Cy5 anti-Myc mouse mAB): higher than that of the fragmented control peptides

Substance: QNDHPQNGGU (cyclo(QNDHPQNGGE); also: Glu10 surface-linked) [cyclic QNDHPQNGGU]
log fold change (log FC) between cyclic and linear fluorescent intensity (streptavidin-Cy5; extension of HPQ-specific design, JXXHPQXXJU): high log FC
cyclic fluorescent intensity (streptavidin-Cy5; [2]): high cyclic intensity

Substance: EQKLISEEDWG [L10W-Myc tag]
signal intensity after single mutation of the precursor sequence (anti-Myc antibody; linear tag on microarray, positions 1-11 modified): strongest increase in signal intensity
specificity by sequence position for the anti-Myc antibody (anti-Myc antibody; [1]): strong specificity on the N-terminus (position 1-5) and moderate specificity on the C-terminus

Substance: NQpWU [cylic NQpWU]
cyclic fluorescent intensity (streptavidin-Cy5; peptide library of format XXXXU): highest cyclic fluorescent intensity

signal intensity after single mutation of the precursor sequence (anti-FLAG antibody): strongest increase in signal intensity
Substance: WDYKDDDDKGG [G1W-FLAG tag]

Substance: LYDHPQNGGU (cyclo(LYDHPQNGGE); also: Glu10 surface-linked) [cylic LYDHPQNGGU]
cyclic fluorescent intensity (streptavidin-Cy5; [2]): highest cyclic intensity
